Results as given in patent publication US20230113037A1 (Bayer Aktiengesellschaft, priority 2019, published 2023).
Where two headings read alike, the source gives them in different places.

What was measured:
AHR [1] = biological target: T1, AHR (Mus musculus, UniProt P30561); assay: In vitro assay 3: antagonism in mouse cell line (AHR transactivation, firefly luciferase reporter, kynurenic acid prestimulated); type: cell-based
T1 sequence (P30561 1-848 P471L/N533S/M589L): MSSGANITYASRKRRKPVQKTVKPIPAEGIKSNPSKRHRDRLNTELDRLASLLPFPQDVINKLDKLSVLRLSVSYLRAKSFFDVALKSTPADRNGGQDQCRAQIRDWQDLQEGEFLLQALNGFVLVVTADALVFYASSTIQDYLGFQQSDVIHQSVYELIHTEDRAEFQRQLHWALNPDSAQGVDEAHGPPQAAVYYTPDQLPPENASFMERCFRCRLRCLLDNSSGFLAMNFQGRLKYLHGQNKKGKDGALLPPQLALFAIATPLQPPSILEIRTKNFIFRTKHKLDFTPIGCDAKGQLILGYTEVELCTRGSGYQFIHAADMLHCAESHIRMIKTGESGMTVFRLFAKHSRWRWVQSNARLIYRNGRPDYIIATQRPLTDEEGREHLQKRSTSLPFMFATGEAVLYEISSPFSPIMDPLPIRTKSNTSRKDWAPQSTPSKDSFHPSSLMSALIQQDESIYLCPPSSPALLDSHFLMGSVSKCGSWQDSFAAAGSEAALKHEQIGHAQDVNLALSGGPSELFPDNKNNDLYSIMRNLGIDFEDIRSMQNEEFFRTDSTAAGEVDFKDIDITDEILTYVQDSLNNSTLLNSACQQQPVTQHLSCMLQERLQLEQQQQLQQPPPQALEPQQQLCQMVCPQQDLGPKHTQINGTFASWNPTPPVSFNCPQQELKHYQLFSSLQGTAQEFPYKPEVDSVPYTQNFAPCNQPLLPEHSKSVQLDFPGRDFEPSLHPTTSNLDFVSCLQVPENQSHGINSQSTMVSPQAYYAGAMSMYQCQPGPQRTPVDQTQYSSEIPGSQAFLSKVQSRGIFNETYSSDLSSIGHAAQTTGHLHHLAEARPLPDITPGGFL
Summary of the method: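 Cells were first stimulated with kynurenic acid, then exposed to test compound, after which firefly luciferase from a DRE-containing AHR reporter was read out. Signal was scaled between positive and negative controls. Cells not given kynurenic acid provided the inhibition reference.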

AHR [2] = biological target: T2, AHR (Homo sapiens, UniProt P35869); assay: In vitro assay 1: antagonism in human cell line (AHR transactivation, firefly luciferase reporter, kynurenic acid prestimulated); type: cell-based; conditions: AHR Antagonism Human IC50 [M]
T2 construct: U87 MG glioblastoma cells (ATCC #HTB-14) endogenously expressing AHR; endogenous in cells; host or cells: U87 MG glioblastoma cells (ATCC #HTB-14)
T2 sequence (P35869 11-848): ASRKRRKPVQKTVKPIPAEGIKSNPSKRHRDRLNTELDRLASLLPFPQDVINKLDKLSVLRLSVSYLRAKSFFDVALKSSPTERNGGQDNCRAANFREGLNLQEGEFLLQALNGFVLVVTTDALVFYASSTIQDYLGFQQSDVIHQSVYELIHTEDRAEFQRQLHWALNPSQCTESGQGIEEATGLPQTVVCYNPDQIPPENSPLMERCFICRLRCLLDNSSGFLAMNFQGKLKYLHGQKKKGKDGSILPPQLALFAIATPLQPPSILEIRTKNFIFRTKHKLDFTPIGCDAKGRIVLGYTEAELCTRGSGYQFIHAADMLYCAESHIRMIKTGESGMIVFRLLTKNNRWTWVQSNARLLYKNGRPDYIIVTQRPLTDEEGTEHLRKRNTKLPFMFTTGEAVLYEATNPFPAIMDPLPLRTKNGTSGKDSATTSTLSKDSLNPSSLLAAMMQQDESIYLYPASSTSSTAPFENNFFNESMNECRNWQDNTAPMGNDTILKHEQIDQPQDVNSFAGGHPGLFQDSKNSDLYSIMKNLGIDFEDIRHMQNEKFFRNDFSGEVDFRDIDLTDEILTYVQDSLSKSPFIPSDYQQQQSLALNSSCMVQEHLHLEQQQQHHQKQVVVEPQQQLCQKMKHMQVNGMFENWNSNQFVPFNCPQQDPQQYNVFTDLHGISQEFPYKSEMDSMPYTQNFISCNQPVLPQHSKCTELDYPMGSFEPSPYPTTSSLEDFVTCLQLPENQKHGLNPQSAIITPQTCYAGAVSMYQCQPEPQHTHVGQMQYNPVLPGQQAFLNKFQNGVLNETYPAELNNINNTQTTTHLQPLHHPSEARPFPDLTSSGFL
Summary of the method: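 U87 MG glioblastoma cells with endogenous AHR, stably carrying a DRE-driven firefly luciferase reporter and constitutive Renilla reporter, prestimulated with kynurenic acid before compound addition. Firefly and Renilla read by dual luciferase; Renilla flags toxicity; normalized to controls (150 μM kynurenic acid + 5 μM staurosporine as full inhibition); repeat values averaged or median.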

[3] = mouse Hepa 1c1c7 cells, 200 μM kynurenic acid, 20 hours, read-out: AHR Antagonism Mouse IC50
[4] = Hepa 1c1c7 cells, 200 μM kynurenic acid, 20 hours, firefly luciferase reporter, read-out: AHR Antagonism Mouse IC50

| Structure (SMILES) | IC50 (AHR [1]; [3]) | IC50 (AHR [2]) | IC50 (AHR [1]; [4]) | IC50 (AHR [2]; firefly luciferase reporter) | IC50 (AHR [1]; read-out: AHR Antagonism Mouse IC50, mouse Hepa 1c1c7 cells, 200 μM kynurenic acid, 20 hours) |
| --- | --- | --- | --- | --- | --- |
| CC(C)Oc1ccc(-c2nc3c4ccccc4nc(N[C@@H]4CCCCNC4=O)n3n2)cc1 [Example 613, (3R)-3-[(2-{4-[(propan-2-yl)oxy]phenyl}[1,2,4]triazolo[1,5-c]quinazolin-5-yl)amino]azepan-2-one] | 0.799 nM | 1.17e-09 M | – | – | – |
| CC[C@@H](Nc1nc2ccccc2c2nc(-c3cscc3OC)nn12)C(N)=O [Example 338, (2R)-2-{[2-(4-methoxythiophen-3-yl)[1,2,4]triazolo[1,5-c]quinazolin-5-yl]amino}butanamide] | 53.9 nM | 1.91e-07 M | – | – | – |
| Cn1cc(-c2nc3c4ccccc4nc(NC4CNCCNC4=O)n3n2)cn1 (racemic) [Example 22, 6-{[2-(1-methyl-1H-pyrazol-4-yl)[1,2,4]triazolo[1,5-c]quinazolin-5-yl]amino}-1,4-diazepan-5-one] | 2030 nM | 5.33e-06 M | – | – | – |
| N#Cc1cccc2c1nc(N[C@@H]1CNCCNC1=O)n1nc(-c3cn[nH]c3)nc21 [Example 935, 5-{[(6R)-5-oxo-1,4-diazepan-6-yl]amino}-2-(1H-pyrazol-4-yl)[1,2,4]triazolo[1,5-c]quinazoline-7-carbonitrile] | – | – | 1120 nM | 4.72e-06 M | – |
| N#Cc1cccc2c1nc(N[C@@H]1CNCCNC1=O)n1nc(-c3cnn(C4CC4)c3)nc21 [Example 932, 2-(1-cyclopropyl-1H-pyrazol-4-yl)-5-{[(6R)-5-oxo-1,4-diazepan-6-yl]amino}[1,2,4]triazolo[1,5-c]quinazoline-7-carbonitrile] | – | – | 173 nM | 1.48e-07 M | – |
| CCC[C@@H](Nc1nc2c(Br)cccc2c2nc(-c3ccc(C#N)cc3)nn12)C(=O)NC [Example 562, N^2-[7-bromo-2-(4-cyanophenyl)[1,2,4]triazolo[1,5-c]quinazolin-5-yl]-N-methyl-D-norvalinamide] | 2.98 nM | 1.37e-09 M | – | – | – |
| O=C1NCCNCC1Nc1nc2cccc(C3CC3)c2c2nc(-c3cccc(F)c3)nn12 (single isomer, unassigned) [Example 300, 6-{[10-cyclopropyl-2-(3-fluorophenyl)[1,2,4]triazolo[1,5-c]quinazolin-5-yl]amino}-1,4-diazepan-5-one] | 6180 nM | > 2e-05 M | – | – | – |
| Cn1cc(-c2nc3c4ccccc4nc(NC4CCCNC4=O)n3n2)cn1 (single isomer, unassigned) [Example 20, 3-{[2-(1-methyl-1H-pyrazol-4-yl)[1,2,4]triazolo[1,5-c]quinazolin-5-yl]amino}piperidin-2-one] | 2210 nM | 1.24e-06 M | – | – | – |
| CCCNC(=O)[C@@H](C)Nc1nc2ccccc2c2nc(-c3cccc(OC(F)(F)F)c3)nn12 [Example 321, N-propyl-N2-{2-[3-(trifluoromethoxy)phenyl][1,2,4]triazolo[1,5-c]quinazolin-5-yl}-D-alaninamide] | 12.4 nM | 2.06e-08 M | – | – | – |
| O=C1NCCNC[C@H]1Nc1nc2c(C(F)(F)F)cccc2c2nc(-c3ccc(Cl)cc3OC(F)(F)F)nn12 [Example 710, (6R)-6-({2-[4-chloro-2-(trifluoromethoxy)phenyl]-7-(trifluoromethyl)[1,2,4]triazolo[1,5-c]quinazolin-5-yl}amino)-1,4-diazepan-5-one] | 1.8 nM | 4.84e-09 M | – | – | – |
| N#Cc1cccc2c1nc(N[C@@H]1CCCCNC1=O)n1nc(-c3cn[nH]c3)nc21 [Example 765, 5-{[(3R)-2-oxoazepan-3-yl]amino}-2-(1H-pyrazol-4-yl)[1,2,4]triazolo[1,5-c]quinazoline-7-carbonitrile] | – | 7.79e-07 M | – | – | 5850 nM |
| CS(=O)(=O)c1ccc(-c2nc3c4ccccc4nc(N[C@@H]4CCCNC4=O)n3n2)cc1 [Example 374, (3R)-3-({2-[4-(methanesulfonyl)phenyl][1,2,4]triazolo[1,5-c]quinazolin-5-yl}amino)piperidin-2-one] | 211 nM | 4.49e-07 M | – | – | – |
| Cn1cc(-c2nc3c4cccc(Br)c4nc(N[C@@H]4CSCCNC4=O)n3n2)cn1 [Example 837, (6S)-6-{[7-bromo-2-(1-methyl-1H-pyrazol-4-yl)[1,2,4]triazolo[1,5-c]quinazolin-5-yl]amino}-1,4-thiazepan-5-one] | – | – | 1.81 nM | 7.6e-10 M | – |
| COc1ccc(-c2nc3c4ccccc4nc(N[C@H]4CCCCNC4=O)n3n2)c(C(F)(F)F)c1 [Example 513, (3S)-3-({2-[4-methoxy-2-(trifluoromethyl)phenyl][1,2,4]triazolo[1,5-c]quinazolin-5-yl}amino)azepan-2-one] | 35.6 nM | 2.66e-07 M | – | – | – |
| COc1ccc(-c2nc3c4cccc(S(C)(=N)=O)c4nc(N[C@@H]4CCCCNC4=O)n3n2)cc1 (single isomer, unassigned) [Example 854] | – | – | 147 nM | 7.05e-09 M | – |
| CC(C)n1cc(-c2nc3c4cccc(C#N)c4nc(N[C@@H]4CNCCNC4=O)n3n2)cn1 [Example 931, 5-{[(6R)-5-oxo-1,4-diazepan-6-yl]amino}-2-[1-(propan-2-yl)-1H-pyrazol-4-yl][1,2,4]triazolo[1,5-c]quinazoline-7-carbonitrile] | – | – | 297 nM | 1.3e-07 M | – |
| O=C1NCCCC[C@@H]1Nc1nc2ccccc2c2nc(-c3cc(Br)ccc3OC(F)(F)F)nn12 [Example 506, (3S)-3-({2-[5-bromo-2-(trifluoromethoxy)phenyl][1,2,4]triazolo[1,5-c]quinazolin-5-yl}amino)azepan-2-one] | > 20000 nM | > 2e-05 M | – | – | – |
| O=C1NCCCC[C@H]1Nc1nc2ccccc2c2nc(-c3ccccc3OC(F)(F)F)nn12 [Example 456, (3R)-3-({2-[2-(trifluoromethoxy)phenyl][1,2,4]triazolo[1,5-c]quinazolin-5-yl}amino)azepan-2-one] | 3.56 nM | 2.98e-09 M | – | – | – |
| Cc1ccccc1-c1nc2c3ccccc3nc(NC3CCNC3=O)n2n1 (single isomer, unassigned) [Example 51, 3-{[2-(2-methylphenyl)[1,2,4]triazolo[1,5-c]quinazolin-5-yl]amino}pyrrolidin-2-one] | 131 nM | 3.09e-08 M | – | – | – |
| CCSc1cccc2c1nc(N[C@@H]1CCCCNC1=O)n1nc(-c3ccc(OC)cc3)nc21 [Example 770, (3R)-3-{[7-(ethylsulfanyl)-2-(4-methoxyphenyl)[1,2,4]triazolo[1,5-c]quinazolin-5-yl]amino}azepan-2-one] | 5.09 nM | 4.04e-09 M | – | – | – |
| Nc1cccc(-c2nc3c4ccccc4nc(N[C@@H]4CCCCNC4=O)n3n2)c1 [Example 621, (3R)-3-{[2-(3-aminophenyl)[1,2,4]triazolo[1,5-c]quinazolin-5-yl]amino}azepan-2-one] | 0.964 nM | 1.02e-09 M | – | – | – |
| COc1ccc(-c2nc3c4ccccc4nc(N[C@@H]4CCCCNC4=O)n3n2)cc1 [Example 29, (3R)-3-{[2-(4-methoxyphenyl)[1,2,4]triazolo[1,5-c]quinazolin-5-yl]amino}azepan-2-one] | 0.524 nM | 4.03e-10 M | – | – | – |
